What was measured:
E. coli (ATCC-25992) = assay: Gram-negative bacteria sepsis model (E. coli challenge), survival by Kaplan-Meier; assay type: in vivo, mice; conditions: followed 2 days, P<0.01
Protocol: 1.2 Gram-Negative Bacteria Sepsis Model
Two groups of animals (twelve mice each) weighing ˜25 g were treated intraperitoneally with 0.75 or 1 mg/kg/day (for three days) of thymoquinone prepared in 10% DMSO; a control group (treated with only 10% DMSO) was also simultaneously run. Four hours after thymoquinone treatment, all groups were challenged with 2 μl/g E. coli (ATCC-25992, […] CFU/ml) prepared in normal saline. Mortality in treated groups was followed for 2 days, and survival (primary endpoint) was calculated using Kaplan-Meier analysis.

[1] = system: sepsis induced by E. coli bacteria; assay: Immunological serum analyses (ELISA) following E. coli administration; assay type: in vivo, mice; conditions: 6 h after E. coli administration
Protocol: (§1) In another set of experiments and after 6 h of E. coli administration, animals were lightly anesthetized with ether, and blood samples were collected, centrifuged and the resultant plasma were stored at −80° C. and used within 48 h. The levels of TNF-α, IL-1α, IL-2 and IL-10 were determined using an ELISA technique. Important biochemical parameters including blood serum creatinine, blood urea nitrogen, alanine transferase (ALT), albumin, and total lactate dehydrogenase (LDH) and creatinine kinase (CK) were also assessed in treated animals using commercially available kits according to the manufacturer's directions.

[2] = system: sepsis caused by E. coli bacteria; assay: Biochemical blood analyses following E. coli administration; assay type: in vivo, mice; conditions: 6 h after E. coli administration
Protocol: as §1

[3] = system: endotoxin (lipopolysaccharide, LPS Escherichia coli O111:B4) induced sepsis; assay: Endotoxin sepsis model (LPS challenge), survival by Kaplan-Meier; assay type: in vivo, mice; conditions: 4 h before 2 mg/kg LPS, followed 4 days, P<0.01
Protocol: 1.1 Endotoxin Sepsis Model (LPS Escherichia coli O111:B4)
Two groups of animals (ten mice each) weighing ˜25 g were treated intraperitoneally with 1 or 2 mg/kg (single dose) of thymoquinone prepared in 10% DMSO; a control group (treated with only 10% DMSO) was also simultaneously run. Four hours after thymoquinone treatment, all groups were challenged with 2 mg/kg endotoxin (lipopolysaccharide, LPS) prepared in normal saline. Mortality of groups was followed for 4 days, and survival (primary endpoint) was calculated using Kaplan-Meier analysis.

[4] = system: parental and multidrug resistant tumor cells; conditions: cited from earlier work
[5] = cited from earlier work
[6] = PROWESS trial, compared to placebo; cited from earlier work

| Compound | protection efficacy against mortality in sepsis induced by Gram-negative bacteria (E. coli (ATCC-25992); 0.75 mg/kg/day i.p. for three days) | protection efficacy against mortality in sepsis induced by Gram-negative bacteria (E. coli (ATCC-25992); 1 mg/kg/day i.p. for three days) | TNF-α level ([1]; FIG. 5A) | IL-1α level ([1]; FIG. 5B) | IL-2 level ([1]; FIG. 5C) | IL-10 level ([1]; FIG. 5D) | blood urea nitrogen (kidney dysfunction biomarker) ([2]; FIG. 4A) | serum creatinine (kidney dysfunction biomarker) ([2]; FIG. 4B) | alanine transferase (liver dysfunction biomarker) ([2]; FIG. 4C) | plasma albumin level ([2]; FIG. 4D) | total creatinine kinase (marker of tissue injury) ([2]; FIG. 4E) | total lactate dehydrogenase (marker of tissue injury) ([2]; FIG. 4F) | protection efficacy against mortality in endotoxin induced sepsis ([3]; 1 mg/kg i.p. single dose) | protection efficacy against mortality in endotoxin induced sepsis ([3]; 2 mg/kg i.p. single dose) [%] | cytotoxicity to parental and multidrug resistant tumor cells [4] | efficacy in sepsis patients ([5]; patients with a low risk of death or pediatric patients) | 28-day mortality rate ([5]; subgroup with recent surgery and single-organ dysfunction, placebo 14.1%, P=0.03) [%] | absolute decrease in mortality rate [6] [%] | relative risk reduction (mortality) [6] [%] |
| --- | --- | --- | --- | --- | --- | --- | --- | --- | --- | --- | --- | --- | --- | --- | --- | --- | --- | --- | --- |
| CC1=CC(=O)C(C(C)C)=CC1=O [thymoquinone, 2-isopropyl-5-methyl-1,4-benzoquinone] | about 90% | about 90% | Significant reductions | Significant reductions | Significant reductions | Significant reductions | Important reductions | Important reductions | Important reductions | improvement in albumin level | Important reductions | Important reductions | about 80% | ~90 | cytotoxic | – | – | – | – |
| drotrecogin alfa | – | – | – | – | – | – | – | – | – | – | – | – | – | – | – | not effective | 20.7 | 6 | 19 |
